These results are taken from patent US11807650B2, “NMDA receptor modulators and uses thereof” (Novartis AG, priority 2016, dated 2023).

T1 sequence (O15399 28-1336, other chains not shown): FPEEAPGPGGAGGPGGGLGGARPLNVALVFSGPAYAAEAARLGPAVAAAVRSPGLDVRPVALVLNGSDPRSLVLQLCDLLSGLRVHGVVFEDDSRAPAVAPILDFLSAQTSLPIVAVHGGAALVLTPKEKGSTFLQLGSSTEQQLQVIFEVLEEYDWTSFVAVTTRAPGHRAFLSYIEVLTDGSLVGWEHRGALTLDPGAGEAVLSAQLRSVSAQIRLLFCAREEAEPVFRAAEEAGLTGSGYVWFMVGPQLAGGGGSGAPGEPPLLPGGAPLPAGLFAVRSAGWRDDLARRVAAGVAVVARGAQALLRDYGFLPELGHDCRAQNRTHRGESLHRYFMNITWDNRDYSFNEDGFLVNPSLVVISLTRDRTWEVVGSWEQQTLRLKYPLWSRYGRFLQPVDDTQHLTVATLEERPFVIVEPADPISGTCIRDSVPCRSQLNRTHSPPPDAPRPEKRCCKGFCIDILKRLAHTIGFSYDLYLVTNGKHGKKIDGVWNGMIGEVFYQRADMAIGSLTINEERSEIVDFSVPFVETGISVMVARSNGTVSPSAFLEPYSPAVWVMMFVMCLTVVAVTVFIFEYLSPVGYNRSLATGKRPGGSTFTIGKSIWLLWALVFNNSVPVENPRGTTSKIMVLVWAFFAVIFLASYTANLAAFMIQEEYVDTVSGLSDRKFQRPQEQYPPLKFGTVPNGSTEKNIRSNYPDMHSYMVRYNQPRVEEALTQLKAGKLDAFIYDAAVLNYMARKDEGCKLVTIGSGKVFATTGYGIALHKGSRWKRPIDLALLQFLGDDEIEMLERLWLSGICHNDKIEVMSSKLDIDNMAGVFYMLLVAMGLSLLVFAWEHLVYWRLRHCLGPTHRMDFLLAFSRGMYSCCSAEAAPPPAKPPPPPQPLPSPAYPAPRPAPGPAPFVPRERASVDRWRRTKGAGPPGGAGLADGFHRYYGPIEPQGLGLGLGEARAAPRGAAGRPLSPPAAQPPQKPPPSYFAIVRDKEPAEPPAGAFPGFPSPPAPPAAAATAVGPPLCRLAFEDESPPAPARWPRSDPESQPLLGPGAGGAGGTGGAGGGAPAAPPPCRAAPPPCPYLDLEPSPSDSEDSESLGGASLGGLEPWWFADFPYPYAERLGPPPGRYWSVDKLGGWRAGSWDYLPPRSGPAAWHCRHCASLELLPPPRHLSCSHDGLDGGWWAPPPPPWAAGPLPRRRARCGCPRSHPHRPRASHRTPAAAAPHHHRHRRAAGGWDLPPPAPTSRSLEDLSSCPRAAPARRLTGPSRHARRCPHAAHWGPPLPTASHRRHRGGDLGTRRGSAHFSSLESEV

The experiment addresses T1, human GRIN1 (transcript variant NR1-3) and GRIN2D expressed in Xenopus oocytes (Homo sapiens, UniProt O15399).
T1 construct: GenScript (GRIN2D synthesis) SC115601; host or cells: Xenopus oocytes injected with cRNA (1 GluN1 : 2 GluN2)
The experiment in a line: NR2D oocyte potentiation assay (two-electrode voltage clamp). It is filed as cell-based. The settings on record: 10 uM test compound; glutamate and glycine 10 μM each; holding potential −40 mV. An outline of the steps:
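Xenopus oocytes were defolliculated with collagenase, then injected with 50 nL of cRNA encoding human GluN1 (NR1-3 variant) and GluN2D mixed 1:2 and kept 72 h at 16° C. Two-electrode voltage clamp at −40 mV recorded currents; after 10 μM glutamate plus 10 μM glycine reached plateau, test compound was added until a new plateau formed.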
Background: Two-electrode voltage clamp is typically applied to oocytes expressing channels or transporters.
As for `CC1CSc2nc(-c3ccc(C4(C)COC4)nc3)c(C#N)c(=O)n2C1` (stereo not shown) [Example 153, 3-methyl-8-(6-(3-methyloxetan-3-yl)pyridin-3-yl)-6-oxo-3,4-dihydro-2H,6H-pyrimido[2,1-b][1,3]thiazine-7-carbonitrile], the activation at 10 µM lay in the range of 100 to 500%.

On to `CC1(c2ccc(-c3nc4n(c(=O)c3C#N)CCCS4)cn2)COC1` [Example 154, 8-(6-(3-methyloxetan-3-yl)pyridin-3-yl)-6-oxo-3,4-dihydro-2H,6H-pyrimido[2,1-b][1,3]thiazine-7-carbonitrile], for which the activation at 10 µM lay within 10 to 100%.

Take `CC1CSc2nc(-c3ccc(C(C)(CF)CF)nc3)c(C#N)c(=O)n2C1` (stereo not shown) [Example 155, 8-(6-(1,3-difluoro-2-methylpropan-2-yl)pyridin-3-yl)-3-methyl-6-oxo-3,4-dihydro-2H,6H-pyrimido[2,1-b][1,3]thiazine-7-carbonitrile]: the activation at 10 µM is 100 to 500%.

For the compound `CC(CF)(CF)c1ccc(-c2nc3n(c(=O)c2C#N)CCCS3)cn1` [Example 156, 8-(6-(1,3-difluoro-2-methylpropan-2-yl)pyridin-3-yl)-6-oxo-3,4-dihydro-2H,6H-pyrimido[2,1-b][1,3]thiazine-7-carbonitrile], the activation at 10 µM was 100 to 500%.

As for `CC(C)(C)c1ncc(-c2nc3n(c(=O)c2C#N)C[C@@H](CO)CS3)cc1F` [Example 157, (S)-8-(6-(tert-butyl)-5-fluoropyridin-3-yl)-3-(hydroxymethyl)-6-oxo-3,4-dihydro-2H,6H-pyrimido[2,1-b][1,3]thiazine-7-carbonitrile], the activation at 10 µM is more than 1000%.

With `CC(C)(C)c1ncc(-c2nc3n(c(=O)c2C#N)C[C@H](CO)CS3)cc1F` [Example 158, (R)-8-(6-(tert-butyl)-5-fluoropyridin-3-yl)-3-(hydroxymethyl)-6-oxo-3,4-dihydro-2H,6H-pyrimido[2,1-b][1,3]thiazine-7-carbonitrile], the activation at 10 µM was more than 1000%.

Turning to `CC(C)(C)c1ncc(-c2nc3n(c(=O)c2C#N)CC(CN2CCCC2)CS3)cc1F` (stereo not shown) [Example 159, 8-(6-(tert-butyl)-5-fluoropyridin-3-yl)-6-oxo-3-(pyrrolidin-1-ylmethyl)-3,4-dihydro-2H,6H-pyrimido[2,1-b][1,3]thiazine-7-carbonitrile], the activation at 10 µM lay in the range of 10 to 100%.

As for `CN(C)CC1CSc2nc(-c3cnc(C(C)(C)C)c(F)c3)c(C#N)c(=O)n2C1` (stereo not shown) [Example 160, 8-(6-(tert-butyl)-5-fluoropyridin-3-yl)-3-((dimethylamino)methyl)-6-oxo-3,4-dihydro-2H,6H-pyrimido[2,1-b][1,3]thiazine-7-carbonitrile], the activation at 10 µM lay in the range of 10 to 100%.

As to `CN(C)C(=O)C1CSc2nc(-c3cnc(C(C)(C)C)c(F)c3)c(C#N)c(=O)n2C1` (stereo not shown) [Example 161, 8-(6-(tert-butyl)-5-fluoropyridin-3-yl)-7-cyano-N,N-dimethyl-6-oxo-3,4-dihydro-2H,6H-pyrimido[2,1-b][1,3]thiazine-3-carboxamide], the activation at 10 µM is 100 to 500%.

`CC(C)(C)c1ncc(-c2nc3n(c(=O)c2C#N)CC(C(=O)N2CCOCC2)CS3)cc1F` (stereo not shown) [Example 162, 8-(6-(tert-butvl)-5-fluoropyndin-3-yl)-3-(morpholine-4-carbonyl)-6-oxo-3,4-dihydro-2H,6H-pyrimido[2,1-b][1,3]thiazine-7-carbonitrile]: the activation at 10 µM was 100 to 500%.

As for `CNC(=O)C1CSc2nc(-c3cnc(C(C)(C)C)c(F)c3)c(C#N)c(=O)n2C1` (stereo not shown) [Example 163, 8-(6-(tert-butyl)-5-fluoropyridin-3-yl)-7-cyano-N-methyl-6-oxo-3,4-dihydro-2H,6H-pyrimido[2,1-b][1,3]thiazine-3-carboxamide], the activation at 10 µM was more than 1000%.

With `CSCC1COc2nc(-c3cnc(C(C)(C)C)c(F)c3)c(C#N)c(=O)n2C1` (stereo not shown) [Example 164, 8-(6-(tert-butyl)-5-fluoropyridin-3-yl)-3-((methylthio)methyl)-6-oxo-3,4-dihydro-2H,6H-pyrimido[2,1-b][1,3]oxazine-7-carbonitrile], the activation at 10 µM fell in the range of 10 to 100%.

Turning to `COCSCC1COc2nc(-c3cnc(C(C)(C)C)c(F)c3)c(C#N)c(=O)n2C1` (stereo not shown) [Example 165, 8-(6-tert-butyl-5-fluoropyridin-3-yl)-3-{[(methoxymethyl)sulfanyl]methyl}-6-oxo-2H,3H, 4H,6H-pyrimido [2,1-b][1,3] oxazine-7-carbonitrile], the activation at 10 µM was more than 1000%.

For `COC[C@H]1CSc2nc(-c3cnc(C(C)(C)C)c(F)c3)c(C#N)c(=O)n2C1` [Example 166, (S)-8-(6-(tert-butyl)-5-fluoropyridin-3-yl)-3-(methoxymethyl)-6-oxo-3,4-dihydro-2H,6H-pyrimido[2,1-b][1,3]thiazine-7-carbonitrile], the activation at 10 µM is more than 1000%.

For `COC[C@@H]1CSc2nc(-c3cnc(C(C)(C)C)c(F)c3)c(C#N)c(=O)n2C1` [Example 167, (R)-8-(6-(tert-butyl)-5-fluoropyridin-3-yl)-3-(methoxymethyl)-6-oxo-3,4-dihydro-2H,6H-pyrimido[2,1-b][1,3]thiazine-7-carbonitrile], the activation at 10 µM is more than 1000%.

Take `CC(=O)NC[C@H]1CSc2nc(-c3cnc(C(C)(C)C)c(F)c3)c(C#N)c(=O)n2C1` [Example 168, (R)-N-((8-(6-(tert-butyl)-5-fluoropyridin-3-yl)-7-cyano-6-oxo-3,4-dihydro-2H,6H-pyrimido[2,1-b][1,3]thiazin-3-yl)methyl)acetamide]: the activation at 10 µM was in the range of 500 to 1000%.

For the compound `CC(=O)NC[C@@H]1CSc2nc(-c3cnc(C(C)(C)C)c(F)c3)c(C#N)c(=O)n2C1` [Example 169, (S)-N-((8-(6-(tert-butyl)-5-fluoropyridin-3-yl)-7-cyano-6-oxo-3,4-dihydro-2H,6H-pyrimido[2,1-b][1,3]thiazin-3-yl)methyl)acetamide], the activation at 10 µM is more than 1000%.

Take `COCOCC1CSc2nc(-c3cnc(C(C)(C)C)c(F)c3)c(C#N)c(=O)n2C1` (stereo not shown) [Example 170, 8-(6-(tert-butyl)-5-fluoropyridin-3-yl)-3-((methoxymethoxy)methyl)-6-oxo-3,4-dihydro-2H,6H-pyrimido[2,1-b][1,3]thiazine-7-carbonitrile]: the activation at 10 µM is more than 1000%.

In the case of `COCOC[C@H]1CSc2nc(-c3cnc(C(C)(C)C)c(F)c3)c(C#N)c(=O)n2C1` [Example 171, (S)-8-(6-(tert-butyl)-5-fluoropyridin-3-yl)-3-((methoxymethoxy)methyl)-6-oxo-3,4-dihydro-2H,6H-pyrimido[2,1-b][1,3]thiazine-7-carbonitrile], the activation at 10 µM was more than 1000%.

Consider `COCOC[C@@H]1CSc2nc(-c3cnc(C(C)(C)C)c(F)c3)c(C#N)c(=O)n2C1` [Example 172, (R)-8-(6-(tert-butyl)-5-fluoropyridin-3-yl)-3-((methoxymethoxy)methyl)-6-oxo-3,4-dihydro-2H,6H-pyrimido[2,1-b][1,3]thiazine-7-carbonitrile], for which the activation at 10 µM is more than 1000%.

On to `CC(C)(C)OCC1CSc2nc(-c3cnc(C(C)(C)C)c(F)c3)c(C#N)c(=O)n2C1` (stereo not shown) [Example 173, 3-(tert-butoxymethyl)-8-(6-(tert-butyl)-5-fluoropyridin-3-yl)-6-oxo-3,4-dihydro-2H,6H-pyrimido[2,1-b][1,3]thiazine-7-carbonitrile], for which the activation at 10 µM is 10 to 100%.

As to `N#Cc1c(-c2ccnc(C3CC3)n2)nc2n(c1=O)CCCS2` [Example 180, 8-(2-cyclopropylpyrimidin-4-yl)-6-oxo-2H,3H,4H,6H-pyrimido[2,1-b][1,3]thiazine-7-carbonitrile], the activation at 10 µM is less than 10%.
